Data: paper PMC12406664, “New derivatives of 6-nitrocoumarin-3-thiosemicarbazone exhibit improved antiparasitic activity in the placenta against Trypanosoma cruzi and Toxoplasma gondii” (Antimicrobial Agents and Chemotherapy, 2025)
“Also recorded” adds a separate entry of the source.

Tests used:
[1] = system: HPE exposed to T. gondii tachyzoites; assay: Histopathology of HPE infected with T. gondii; format: cell-based, human; conditions: IC50 concentration
Excerpt: Cells or HPE were exposed to parasites. […] The following treatment conditions were used in both infection models. […] Untreated cells or HPE served as a negative control, and the compounds’ activity was compared with the reference drugs (NFX and PMN).

[2] = system: T. gondii tachyzoites (strain RH); assay: ESR spin trapping with DMPO in T. gondii; format: cell-based, Toxoplasma gondii; conditions: compound about 1 mM, menadione 20 µM
Description: Each tested hybrid was dissolved in spectroscopy-grade DMSO at an approximate concentration of 1 mM and added to a mixture containing Trypanosoma cruzi (Dm28c strain) or Toxoplasma gondii at a density of 50 × 10⁶ trypomastigotes or tachyzoites per mL, along with DMPO at a final concentration of 250 mM. Menadione (20 µM) was used as a positive control.
All spectra were acquired on the same scale after 15 scans.

[3] = system: T. gondii (RH strain) in HPE; assay: T. gondii DNA load in infected human placental explants (HPE) by real-time qPCR; format: cell-based, Toxoplasma gondii; conditions: 24 hour post-infection treatment, IC50 concentration
Description: The effect on HPE infection of compounds 1 and 7 by Toxoplasma gondii and Trypanosoma cruzi, respectively, was evaluated. To do this, the DNA of the T. gondii or T. cruzi parasite was quantified by infecting HPE for 24 hours under treatment conditions of co-incubation of compounds with the parasite at the same time of infection, and with a 24 hour post-infection treatment. The compound’s IC50 concentration value previously obtained under both conditions was used.
Term human placentas were obtained from uncomplicated pregnancies via scheduled cesarean sections. Each patient provided informed consent for the experimental use of the placenta, and the study was approved by the ethics committee of Hospital San José, Servicio Salud Metropolitano Norte (N° 013/2022). Exclusion criteria for placental use included significant fetal anomalies, placental tumors, intrauterine infection, positive serology for Chagas disease, obstetric pathology, and any other maternal disease. Donor patients tested negative for T. gondii IgG/IgM antibodies. Organs were collected in sterile, cold PBS and processed within 30 minutes after delivery. Maternal and fetal surfaces of each placenta were discarded, and the villous tissue from the central part of the placental cotyledons was isolated. […] All the experiments were performed in triplicate in at least three different placentas.
Cells or HPE were exposed to parasites. […]
Subsequently, cells were exposed to parasites at a 1:1 ratio (cell: parasite) for 24 hours. […] The resulting DNA was quantified using a μDrop Plate DNA quantification system on the Varioskan Flash multimode reader (Thermo Scientific, USA). […]
Amplification was carried out using the CFX96 Touch Deep Well Real-Time PCR Detection System (Biorad, California, USA) with the following cycling program: initial denaturation at 95°C for 3 min, followed by 40 cycles of denaturation at 95°C for 5 s, annealing at 60°C for 30 s, and a dissociation stage ranging from 60°C to 95°C. The relative quantification analysis of the results was expressed as RQ values using the comparative […] (∆∆Ct) ([80]).

[4] = Cytotoxicity on cells (resazurin), BeWo; format: cell-based; conditions: human, BeWo trophoblast cells
Excerpt: Triton X-100 was used as a positive control, and untreated cells served as a negative control. In addition, the maximum concentration of DMSO was used as a control for the method. […] The obtained values were expressed as IC50([88]).

[5] = system: T. cruzi trypomastigotes, Dm28 strain; assay: Resazurin viability assay on free T. cruzi trypomastigotes; conditions: Trypanosoma cruzi, 24 h, read-out: Viability T. cruzi (%)
Description: The reduction of resazurin sodium salt was used to determine the trypanocidal and toxoplasmicidal activity of the 6-nitrocoumarin-thiosemicarbazone hybrids 1–8. For this, treatment with the compounds was carried out for 24 h at a concentration of 100 µM.
NFX was used as a positive control for T. cruzi, and PMN was used for T. gondii. Untreated parasites served as a negative control. […] Subsequently, parasites with their respective conditions were transferred to a 96-well white fluorescence reading plate, adding resazurin at a final concentration of […] with 0.8 mM phenazine. The plate was incubated for 3 hours at 37°C in a humidified atmosphere with 5% CO2, and fluorescence measurements were taken using a microplate reader (Thermo Scientific Varioskan Flash) at excitation wavelengths of 560 nm and emission wavelengths of 590 nm.

[6] = Lipophilicity by reversed-phase TLC (RM); conditions: reverse phase-C18, DMSO/phosphate buffer pH 7.4 (70:30 vol/vol), RM = log[(1/Rf) – 1]
Description: Lipophilicity was studied by reversed-phase TLC experiments. Precoated TLC plates SIL RP-18W/UV254 were used and eluted with DMSO/physiological serum (70:30, vol/vol). Stock solutions were prepared in pure DMSO (Aldrich) prior to use. The plates were developed in a closed chromatographic tank, dried, and the spots were located under UV light. The Rf values were averaged from three determinations and converted into RM values via the relationship: RM = log [(1/Rf)−1]

[7] = system: T. gondii tachyzoites, RH strain; assay: Resazurin viability assay on free T. gondii tachyzoites; format: cell-based, Toxoplasma gondii
Excerpt: Untreated parasites served as a negative control.

## C/C(=N\NC(N)=S)c1c(O)c2cc([N+](=O)[O-])ccc2oc1=O [Compound 1, (E)−2-(1-(4-hydroxy-6-nitro-2-oxo-2H-chromen-3-yl)ethylidene)hydrazine-1-carbothioamide]
[1]; co-incubation
  tissue damage in infected HPE (histopathology): prevented tissue damage induced by tachyzoites
[1]; post-infection treatment
  tissue damage in infected HPE (histopathology): did not reduce the parasitic load or mitigate tissue damage
[2]
  radical species detected by ESR spin trapping (DMPO): formation of only two spin adducts
[3]
  effect on parasite DNA load: not statistically significant; also recorded: did not reduce the parasitic load
[4]
  CC50 at 24 h: 386.9 ± 1 µM
[5]
  viability at 100 µM: 85.5 ± 11.3%
[6]
  Lipophilicity (RM): 0.00
[7]; Toxoplasma gondii, extracellular tachyzoites RH strain, 24 h, resazurin
  IC50: 17.3 ± 0.5 µM
[7]; Toxoplasma gondii, tachyzoites RH, 100 µM, 24 h
  viability at 100 µM: 24.3 ± 10.4%
[7]; parasite T. gondii
  SI = BeWo CC50/parasite IC50: 22.3
  SI = EA.hy926 CC50/parasite IC50: >23.1
